We go through one compound from patent publication US20080020048A1, “Treatment of Respiratory Disease” (priority 2004, published 2008).

The nature of series [1]: Glycopyrrolate therapy, summary of findings of the studies. The class given is in vivo. An excerpt: Further, it is apparent that different dosages of the drug, without side-effects, are essentially equivalent in effect. […] This makes the medicament particularly suitable for the treatment of bronchospasm, or as a rescue medication.
Series [2] deals with asthma. As to conditions: single administration of metered-dose aerosol; cited from earlier work.
Series [3] deals with asthma. The conditions noted are these: inhaled; cited from earlier work.

On to `C[N+]1(C)CCC(OC(=O)C(O)(c2ccccc2)C2CCCC2)C1` (centres unmarked) [glycopyrrolate], for which, in series [1] (in vivo), the Onset of bronchodilation result was “high and immediate”. For the same compound, the Tachycardia entry in series [1] (problems associated with anti-muscarinics) is recorded as “apparently absent”. The Period of bronchodilation in the series with asthma [2] is 12 h. In the series with asthma [3], the “Duration of effective treatment” value is “up to 12 hours” and the “Duration of effective treatment, maximal” value is recorded as “up to 8 hours”.
